Columns and labels:
Parameters in all cases: key: −: no saccharide-transferred product was detected through transfer reaction to acceptor; ∀: a saccharide-transferred product was detected in an amount less than one percent through transfer reaction to acceptor; +: a saccharide-transferred product was detected in an amount over one percent but less than ten percent through transfer reaction to acceptor; ++: a saccharide-transferred product was detected in an amount over ten percent through transfer reaction to acceptor
[1] = test system: α-isomaltosylglucosaccharide-forming enzyme; assay: Transfer-acceptor specificity, Enzyme of Strain C11; assay type: biochemical, Bacillus globisporus C11; conditions: acceptor 1.6%, PINE-DEX #100 donor 4%, one unit/g donor, 30° C., pH 6.0, 24 hours
Description: (§1) Using different saccharides, it was tested whether the saccharides were used as transferring-acceptors for the α-isomaltosylglucosaccharide-forming enzyme of the present invention. A solution of D-glucose, D-xylose, L-xylose, D-galactose, D-fructose, D-mannose, D-arabinose, D-fucose, D-psicose, L-sorbose, L-rhamnose, methyl-α-glucopyranoside, methyl-β-glucopyranoside, N-acetyl-glucosamine, sorbitol, trehalose, isomaltose, isomaltotriose, cellobiose, gentibiose, glycerol, maltitol, lactose, sucrose, α-cyclodextrin, β-cyclodextrin, γ-cyclodextrin, or L-ascorbic acid was prepared.
(§2) To each solution with a saccharide concentration of 1.6% was added “PINE-DEX #100”, a partial starch hydrolysate, as a saccharide donor, to give a concentration of 4%, and admixed with one unit/g saccharide donor, d.s.b., of either of purified specimens of α-isomaltosylglucosaccharide-forming enzyme from Bacillus globisporus C9 obtained by the method in Experiment 4-2, Bacillus globisporus C11 obtained by the method in Experiment 7-2, Bacillus globisporus N75 obtained by the method in Experiment 11-2, or Arthrobacter globiformis A19 obtained by the method in Experiment 15-2, and incubated at 30° C. and pH 6.0, except that pH 8.4 was used for the enzyme from Arthrobacter globiformis A19, for 24 hours. The reaction mixtures of the post-enzymatic reactions were analyzed on gas chromatography (abbreviated as “GLC” hereinafter) for monosaccharides and disaccharides as acceptors, and on HPLC for trisaccharides as acceptors to confirm whether these saccharides could be used as their transfer acceptors. In the case of performing GLC, the following apparatuses and conditions are used: GLC apparatus, “GC-16A” commercialized by Shimadzu Corporation, Tokyo, Japan; column, a stainless-steel column, 3 mm in diameter and 2 m in length, packed with 2% “SILICONE OV-17/[…]”, commercialized by GL Sciences Inc., Tokyo, Japan; carrier gas, nitrogen gas at a flow rate of 40 ml/min under temperature conditions of increasing from 160° C. to 320° C. at an increasing temperature rate of 7.5° C./min; and detection, a hydrogen flame ionization detector. In the case of HPLC analysis, the apparatuses and conditions used are: HPLC apparatus, “CCPD” commercialized by Tosoh Corporation, Tokyo, Japan; column, “ODS-AQ-303” commercialized by YMC Co., Ltd., Tokyo, Japan; eluent, water at a flow rate of 0.5 ml/min; and detection, a differential refractometer.

[2] = test system: α-isomaltosylglucosaccharide-forming enzyme; assay: Transfer-acceptor specificity, Enzyme of Strain N75; assay type: biochemical, Bacillus globisporus N75; conditions: acceptor 1.6%, PINE-DEX #100 donor 4%, one unit/g donor, 30° C., pH 6.0, 24 hours
Description: as §1, §2

[3] = test system: α-isomaltosylglucosaccharide-forming enzyme; assay: Transfer-acceptor specificity, Enzyme of Strain C9; assay type: biochemical, Bacillus globisporus C9; conditions: acceptor 1.6%, PINE-DEX #100 donor 4%, one unit/g donor, 30° C., pH 6.0, 24 hours
Description: as §1, §2

[4] = test system: α-isomaltosylglucosaccharide-forming enzyme; assay: Transfer-acceptor specificity, Enzyme of Strain A19; assay type: biochemical, Arthrobacter globiformis A19; conditions: acceptor 1.6%, PINE-DEX #100 donor 4%, one unit/g donor, 30° C., pH 8.4, 24 hours
Description: as §1, §2

SMILES	Product of transferring reaction, Enzyme of Strain C11 [1]	Product of transferring reaction, Enzyme of Strain N75 [2]	Product of transferring reaction, Enzyme of Strain C9 [3]	Product of transferring reaction, Enzyme of Stain A19 [4]
O=C(CO)[C@@H](O)[C@H](O)[C@@H](O)CO [L-Sorbose]	+ (a saccharide-transferred product was detected in an amount over one percent but less than ten percent through transfer reaction to acceptor)	+ (a saccharide-transferred product was detected in an amount over one percent but less than ten percent through transfer reaction to acceptor)	+ (a saccharide-transferred product was detected in an amount over one percent but less than ten percent through transfer reaction to acceptor)	+ (a saccharide-transferred product was detected in an amount over one percent but less than ten percent through transfer reaction to acceptor)
O=C[C@@H](O)[C@H](O)[C@@H](O)CO [L-Xylose]	++ (a saccharide-transferred product was detected in an amount over ten percent through transfer reaction to acceptor)	++ (a saccharide-transferred product was detected in an amount over ten percent through transfer reaction to acceptor)	++ (a saccharide-transferred product was detected in an amount over ten percent through transfer reaction to acceptor)	+ (a saccharide-transferred product was detected in an amount over one percent but less than ten percent through transfer reaction to acceptor)
CO[C@H]1O[C@H](CO)[C@@H](O)[C@H](O)[C@H]1O [Methyl-α-glucopyranoside]	++ (a saccharide-transferred product was detected in an amount over ten percent through transfer reaction to acceptor)	++ (a saccharide-transferred product was detected in an amount over ten percent through transfer reaction to acceptor)	++ (a saccharide-transferred product was detected in an amount over ten percent through transfer reaction to acceptor)	++ (a saccharide-transferred product was detected in an amount over ten percent through transfer reaction to acceptor)
CO[C@@H]1O[C@H](CO)[C@@H](O)[C@H](O)[C@H]1O [Methyl-β-glucopyranoside]	++ (a saccharide-transferred product was detected in an amount over ten percent through transfer reaction to acceptor)	++ (a saccharide-transferred product was detected in an amount over ten percent through transfer reaction to acceptor)	++ (a saccharide-transferred product was detected in an amount over ten percent through transfer reaction to acceptor)	++ (a saccharide-transferred product was detected in an amount over ten percent through transfer reaction to acceptor)
CC(=O)N[C@H]1C(O)O[C@H](CO)[C@@H](O)[C@@H]1O (stereo partly drawn) [N-Acetyl-glucosamine]	+ (a saccharide-transferred product was detected in an amount over one percent but less than ten percent through transfer reaction to acceptor)	+ (a saccharide-transferred product was detected in an amount over one percent but less than ten percent through transfer reaction to acceptor)	+ (a saccharide-transferred product was detected in an amount over one percent but less than ten percent through transfer reaction to acceptor)	−
OC[C@@H](O)[C@@H](O)[C@H](O)[C@@H](O)CO [Sorbitol]	−	−	−	−
OC[C@H]1O[C@@H]2O[C@H]3[C@H](O)[C@@H](O)[C@@H](O[C@H]4[C@H](O)[C@@H](O)[C@@H](O[C@H]5[C@H](O)[C@@H](O)[C@@H](O[C@H]6[C@H](O)[C@@H](O)[C@@H](O[C@H]7[C@H](O)[C@@H](O)[C@@H](O[C@H]1[C@H](O)[C@H]2O)O[C@@H]7CO)O[C@@H]6CO)O[C@@H]5CO)O[C@@H]4CO)O[C@@H]3CO [α-Cyclodextrin]	−	−	−	−
OC[C@H]1O[C@@H]2O[C@H]3[C@H](O)[C@@H](O)[C@@H](O[C@H]4[C@H](O)[C@@H](O)[C@@H](O[C@H]5[C@H](O)[C@@H](O)[C@@H](O[C@H]6[C@H](O)[C@@H](O)[C@@H](O[C@H]7[C@H](O)[C@@H](O)[C@@H](O[C@H]8[C@H](O)[C@@H](O)[C@@H](O[C@H]1[C@H](O)[C@H]2O)O[C@@H]8CO)O[C@@H]7CO)O[C@@H]6CO)O[C@@H]5CO)O[C@@H]4CO)O[C@@H]3CO [β-Cyclodextrin]	−	−	−	−
OC[C@H]1O[C@@H]2O[C@H]3[C@H](O)[C@@H](O)[C@@H](O[C@H]4[C@H](O)[C@@H](O)[C@@H](O[C@H]5[C@H](O)[C@@H](O)[C@@H](O[C@H]6[C@H](O)[C@@H](O)[C@@H](O[C@H]7[C@H](O)[C@@H](O)[C@@H](O[C@H]8[C@H](O)[C@@H](O)[C@@H](O[C@H]9[C@H](O)[C@@H](O)[C@@H](O[C@H]1[C@H](O)[C@H]2O)O[C@@H]9CO)O[C@@H]8CO)O[C@@H]7CO)O[C@@H]6CO)O[C@@H]5CO)O[C@@H]4CO)O[C@@H]3CO [γ-Cyclodextrin]	−	−	−	−
